These results are taken from patent US9067871B2, “Aminotetraline derivatives, pharmaceutical compositions containing them, and their use in therapy” (ABBVIE DEUTSCHLAND GMBH & CO KG, priority 2009, dated 2015).

The target of one assay is human GlyT1c transporter (Homo sapiens (Human), UniProt P48067). The experiment in a line: Radioligand binding assay using recombinant CHO cell membranes expressing human GlyT1. The settings on record: read-out: radioligand binding Kiapp. An excerpt:
2. Radioligand binding assays using recombinant CHO cell membranes expressing human GlyT1: […]

The next assay addresses human GlyT1c (Homo sapiens (Human), UniProt P48067). The experiment in a line: [3H]-Glycine uptake into recombinant CHO cells expressing human GlyT1. Type of assay: cell-based. As to the method: 1. [^3H]-Glycine uptake into recombinant CHO cells expressing human GlyT1: Human GlyT1c expressing recombinant hGlyT1c—5_CHO cells were plated at 20,000 cells per well in 96 well Cytostar-T scintillation microplates (Amersham Biosciences) and cultured to sub-confluency for 24 h. […] 80 μl HBSS buffer were added, followed by 10 μl inhibitor or vehicle (10% DMSO) and 10 μl [^3H]-glycine (TRK71, Amersham Biosciences) to a final concentration of 200 nM for initiation of glycine uptake. The plates were placed in a Wallac Microbeta (PerkinElmer) and continuously counted by solid phase scintillation spectrometry during up to 3 hours. Nonspecific uptake was determined in the presence of 10 μM Org24598.

[1] abbreviates: human GlyT1c-expressing CHO cell membranes.
Setting [2] is: hGlyT1c_5_CHO cells, 200 nM [3H]-glycine.

Counter-ions that a name gives are not always drawn. Like-named read-outs stand apart in the source and are kept apart here.

By IC50 is commonly meant the concentration that inhibits the measured activity by half.

Sequence of human GlyT1c (P48067 whole entry): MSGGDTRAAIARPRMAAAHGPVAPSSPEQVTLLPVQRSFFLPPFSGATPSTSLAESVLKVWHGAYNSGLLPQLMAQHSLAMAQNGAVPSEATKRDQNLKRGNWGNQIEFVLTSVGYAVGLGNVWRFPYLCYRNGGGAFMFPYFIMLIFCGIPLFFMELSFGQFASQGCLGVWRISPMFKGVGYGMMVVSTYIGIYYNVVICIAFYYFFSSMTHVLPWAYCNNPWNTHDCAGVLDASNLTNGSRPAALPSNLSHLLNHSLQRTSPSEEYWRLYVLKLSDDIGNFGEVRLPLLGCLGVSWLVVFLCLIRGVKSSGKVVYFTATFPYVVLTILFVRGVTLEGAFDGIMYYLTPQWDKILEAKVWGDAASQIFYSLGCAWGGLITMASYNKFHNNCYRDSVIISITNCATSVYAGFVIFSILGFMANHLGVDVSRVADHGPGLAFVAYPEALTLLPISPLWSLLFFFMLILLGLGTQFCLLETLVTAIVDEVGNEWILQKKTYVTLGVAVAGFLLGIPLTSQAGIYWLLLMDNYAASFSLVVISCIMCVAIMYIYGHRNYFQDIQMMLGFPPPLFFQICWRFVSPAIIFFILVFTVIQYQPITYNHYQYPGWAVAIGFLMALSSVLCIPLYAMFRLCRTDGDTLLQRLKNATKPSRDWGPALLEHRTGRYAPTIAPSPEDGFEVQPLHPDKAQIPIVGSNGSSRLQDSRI
Sequence of human GlyT1c transporter (P48067 whole entry): as above

Turning to `CCOC(=O)NC1CCc2ccc(OCCNS(=O)(=O)CCCF)cc2C1Cc1ccc(Cl)c(Cl)c1` (stereo not shown) [Example 22, {1-(3,4-Dichloro-benzyl)-7-[2-(3-fluoro-propane-1-sulfonylamino)-ethoxy]-1,2,3,4-tetrahydro-naphthalen-2-yl}-carbamic acid ethyl ester], the Ki on human GlyT1c transporter (setting [1]) is at most 10 µM. Also, the IC50 on human GlyT1c (setting [2]) is at most 1000 µM.
The corresponding values for `CCNC1CCc2ccc(OCCNS(=O)(=O)c3cn(C)cn3)cc2C1Cc1ccc(Cl)c(Cl)c1` (stereo not shown) [Example 23, 1-Methyl-1H-imidazole-4-sulfonic acid {2-[8-(3,4-dichloro-benzyl)-7-ethylamino-5,6,7,8-tetrahydro-naphthalen-2-yloxy]-ethyl}-amide] are at most 10 µM and at most 100 µM.
Consider `Cc1csc(S(=O)(=O)NCCOc2ccc3c(c2)C(Cc2ccc(Cl)c(Cl)c2)C(N)CC3)c1` (stereo not shown) [Example 24, 4-Methyl-thiophene-2-sulfonic acid {2-[7-amino-8-(3,4-dichloro-benzyl)-5,6,7,8-tetrahydronaphthalen-2-yloxy]-ethyl}-amide hydrochloride], for which the Ki at human GlyT1c transporter is at most 0.1 µM. On human GlyT1c, the 50% inhibitory concentration (IC50) is at most 10 µM.
`CN(C)S(=O)(=O)NCCOc1ccc2c(c1)C(Cc1ccc(Cl)c(Cl)c1)C(N)CC2` (stereo not shown) [Example 25, N′-(2-{[7-amino-8-(3,4-dichlorobenzyl)-5,6,7,8-tetrahydronaphthalen-2-yl]oxy}ethyl)-N,N-dimethylsulfuric diamide hydrochloride]: the Ki on human GlyT1c transporter (setting [1]) was at most 0.1 µM. In addition, on human GlyT1c (setting [2]), the IC50 was at most 1 µM.
Taken in the same sequence, the figures for `CCOC(=O)NC1CCc2ccc(OCCNS(=O)(=O)CCC(F)(F)F)cc2C1Cc1ccc(Cl)c(Cl)c1` (stereo not shown) [Example 26, {1-(3,4-Dichloro-benzyl)-7-[2-(3,3,3-trifluoro-propane-1-sulfonylamino)-ethoxy]-1,2,3,4-tetrahydro-naphthalen-2-yl}-carbamic acid ethyl ester] were at most 10 µM and at most 1000 µM.
The corresponding values for `Cn1cnc(S(=O)(=O)NCCOc2ccc3c(c2)C(Cc2ccc(Cl)cc2)C(N)CC3)c1` (stereo not shown) [Example 27, 1-Methyl-1H-imidazole-4-sulfonic acid {2-[7-amino-8-(4-chloro-benzyl)-5,6,7,8-tetrahydronaphthalen-2-yloxy]-ethyl}-amide hydrochloride] are at most 0.01 µM and at most 0.01 µM.
Taken in the same sequence, the figures for `Cn1cc(S(=O)(=O)NCCOc2ccc3c(c2)C(Cc2ccc(Cl)cc2)C(N)CC3)cn1` (stereo not shown) [Example 28, 1-Methyl-1H-pyrazole-4-sulfonic acid {2-[7-amino-8-(4-chloro-benzyl)-5,6,7,8-tetrahydronaphthalen-2-yloxy]-ethyl}-amide hydrochloride] were at most 0.01 µM and at most 0.01 µM.
Regarding `N#Cc1ccc2c(c1)C(Cc1ccc(Cl)c(Cl)c1)C(N)CC2` (stereo not shown) [Example 29, 7-Amino-8-(3,4-dichlorobenzyl)-5,6,7,8-tetrahydronaphthalene-2-carbonitrile trifluoroacetate], the Ki at human GlyT1c transporter (setting [1]) was at most 10 µM. In addition, the 50% inhibitory concentration (IC50) at human GlyT1c (setting [2]) was at most 100 µM.
Turning to `N#Cc1ccc2c(c1)C(Cc1ccc(Cl)cc1)C(N)CC2` (stereo not shown) [Example 30, 7-Amino-8-(4-chlorobenzyl)-5,6,7,8-tetrahydronaphthalene-2-carbonitrile hydrochloride], the Ki on human GlyT1c transporter (setting [1]) was at most 100 µM. Besides, the concentration for half-maximal inhibition (IC50) at human GlyT1c (setting [2]) is at most 100 µM.
With `CCOC(=O)NC1CCc2ccc(C#N)cc2C1Cc1ccc(Cl)c(Cl)c1` (stereo not shown) [Example 32, Ethyl [7-cyano-1-(3,4-dichlorobenzyl)-1,2,3,4-tetrahydronaphthalen-2-yl]carbamate], on human GlyT1c transporter (setting [1]), the Ki is at most 10 µM. In addition, the half-inhibitory concentration (IC50) at human GlyT1c (setting [2]) is at most 100 µM.
The corresponding values for `NC1CCc2ccc(OCCN3CCCS3(=O)=O)cc2C1Cc1cccc(Cl)c1` (stereo not shown) [Example 33, 1-(3-chlorobenzyl)-7-[2-(1,1-dioxidoisothiazolidin-2-yl)ethoxy]-1,2,3,4-tetrahydronaphthalen-2-amine hydrochloride] are at most 1 µM and at most 1 µM.
Taken in the same sequence, the figures for `CC(C)(C)OC(=O)NC1CCc2ccc(C#N)cc2C1Cc1ccc(Cl)c(Cl)c1` (stereo not shown) [Example 34, tert-Butyl[7-cyano-1-(3,4-dichlorobenzyl)-1,2,3,4-tetrahydronaphthalen-2-yl]carbamate] were at most 10 µM and at most 1000 µM.
Turning to `NC1CCc2ccc(O)cc2C1Cc1ccc(Cl)c(Cl)c1` (stereo not shown) [Example 35, 7-Amino-8-(3,4-dichlorobenzyl)-5,6,7,8-tetrahydronaphthalen-2-ol trifluoroacetate (salt)], at human GlyT1c transporter (setting [1]), the Ki is at least 100 µM. On human GlyT1c (setting [2]), the IC50 is at most 100 µM.
Taken in the same sequence, the figures for `NC1CCc2ccc(OC(F)F)cc2C1Cc1ccc(Cl)cc1` (stereo not shown) [Example 36, 1-(4-chlorobenzyl)-7-(difluoromethoxy)-1,2,3,4-tetrahydronaphthalen-2-amine hydrochloride] were at most 100 µM and at most 10 µM.
Consider `O=C(NC1CCc2ccc(O)cc2C1Cc1ccc(Cl)cc1)OCc1ccccc1` (stereo not shown) [Example 37, Benzyl [1-(4-chlorobenzyl)-7-hydroxy-1,2,3,4-tetrahydronaphthalen-2-yl]carbamate], for which, on human GlyT1c transporter (setting [1]), the Ki was at most 10 µM. On human GlyT1c (setting [2]), the IC50 was at most 100 µM.
Taken in the same sequence, the figures for `CC(C)(C)OC(=O)NC1CCc2ccc(CN)cc2C1Cc1ccc(Cl)c(Cl)c1` (stereo not shown) [Example 38, tert-Butyl[7-(aminomethyl)-1-(3,4-dichlorobenzyl)-1,2,3,4-tetrahydronaphthalen-2-yl]carbamate] were at most 100 µM and at most 100 µM.
Taken in the same sequence, the figures for `CCCS(=O)(=O)NCc1ccc2c(c1)C(Cc1ccc(Cl)c(Cl)c1)C(NC(=O)OC(C)(C)C)CC2` (stereo not shown) [Example 39, tert-Butyl[1-(3,4-dichlorobenzyl)-7-{[(propylsulfonyl)amino]methyl}-1,2,3,4-tetrahydronaphthalen-2-yl]carbamate] were at most 10 µM and at most 1000 µM.
Taken in the same sequence, the figures for `NC1CCc2ccc(CNS(=O)(=O)CCCF)cc2C1Cc1ccc(Cl)c(Cl)c1` (stereo not shown) [Example 41, N-{[7-Amino-8-(3,4-dichlorobenzyl)-5,6,7,8-tetrahydronaphthalen-2-yl]methyl}-3-fluoropropane-1-sulfonamide hydrochloride] were at most 10 µM and at most 100 µM.
Turning to `CCOC(=O)NC1CCc2ccc(OCCNS(=O)(=O)c3cnn(C)c3)cc2C1Cc1cccc(Cl)c1` (stereo not shown) [Example 46, {1-(3-Chloro-benzyl)-7-[2-(1-methyl-1H-pyrazole-4-sulfonylamino)-ethoxy]-1,2,3,4-tetrahydro-naphthalen-2-yl}-carbamic acid ethyl ester], the Ki at human GlyT1c transporter (setting [1]) is at most 1 µM. The half-inhibitory concentration (IC50) at human GlyT1c (setting [2]) was at most 1 µM.
On to `Cn1cc(S(=O)(=O)NCCOc2ccc3c(c2)C(Cc2cccc(Cl)c2)C(N)CC3)cn1` (stereo not shown) [Example 47, 1-Methyl-1H-pyrazole-4-sulfonic acid {2-[7-amino-8-(3-chloro-benzyl)-5,6,7,8-tetrahydronaphthalen-2-yloxy]-ethyl}-amide hydrochloride], for which the Ki on human GlyT1c transporter (setting [1]) is at most 0.01 µM. Further, the half-inhibitory concentration (IC50) on human GlyT1c (setting [2]) was at most 0.01 µM.
For `Cn1cnc(S(=O)(=O)NCCOc2ccc3c(c2)C(Cc2cccc(Cl)c2)C(N)CC3)c1` (stereo not shown) [Example 48, 1-Methyl-1H-imidazole-4-sulfonic acid {2-[7-amino-8-(3-chloro-benzyl)-5,6,7,8-tetrahydronaphthalen-2-yloxy]-ethyl}-amide hydrochloride], the Ki on human GlyT1c transporter (setting [1]) is at most 0.01 µM. The IC50 on human GlyT1c (setting [2]) is at most 0.01 µM.
For the compound `CCOC(=O)NC1CCc2ccc(OCCNS(=O)(=O)c3sc(C)nc3C)cc2C1Cc1cccc(Cl)c1` (stereo not shown) [Example 49, {1-(3-Chloro-benzyl)-7-[2-(2,4-dimethyl-thiazole-5-sulfonylamino)-ethoxy]-1,2,3,4-tetrahydro-naphthalen-2-yl}-carbamic acid ethyl ester], the Ki at human GlyT1c transporter (setting [1]) is at most 100 µM. Also, the IC50 at human GlyT1c (setting [2]) is at most 100 µM.
In the case of `CCOC(=O)NC1CCc2ccc(OCCNS(=O)(=O)c3cccs3)cc2C1Cc1cccc(Cl)c1` (stereo not shown) [Example 50, {1-(3-Chloro-benzyl)-7-[2-(thiophene-2-sulfonylamino)-ethoxy]-1,2,3,4-tetrahydronaphthalen-2-yl}-carbamic acid ethyl ester], at human GlyT1c transporter (setting [1]), the Ki is at most 1 µM. Moreover, the half-inhibitory concentration (IC50) at human GlyT1c (setting [2]) is at most 10 µM.
The corresponding values for `CCOC(=O)NC1CCc2ccc(OCCNS(=O)(=O)c3ccc(Cl)s3)cc2C1Cc1cccc(Cl)c1` (stereo not shown) [Example 51, {1-(3-Chloro-benzyl)-7-[2-(5-chloro-thiophene-2-sulfonylamino)-ethoxy]-1,2,3,4-tetrahydronaphthalen-2-yl}-carbamic acid ethyl ester] are at most 100 µM and at most 1000 µM.
Taken in the same sequence, the figures for `CCOC(=O)NC1CCc2ccc(OCCNS(=O)(=O)c3cnc(C)[nH]3)cc2C1Cc1cccc(Cl)c1` (stereo not shown) [Example 52, {1-(3-Chloro-benzyl)-7-[2-(2-methyl-3H-imidazole-4-sulfonylamino)-ethoxy]-1,2,3,4-tetrahydro-naphthalen-2-yl}-carbamic acid ethyl ester] were at most 10 µM and at most 10 µM.
Taken in the same sequence, the figures for `CCOC(=O)NC1CCc2ccc(OCCNS(=O)(=O)c3ccc(C)s3)cc2C1Cc1cccc(Cl)c1` (stereo not shown) [Example 53, {1-(3-Chloro-benzyl)-7-[2-(5-methyl-thiophene-2-sulfonylamino)-ethoxy]-1,2,3,4-tetrahydro-naphthalen-2-yl}-carbamic acid ethyl ester] were at most 10 µM and at most 1000 µM.
